The source of these data is paper PMC3390344, “Antibacterial Activity and Mechanism of a Scorpion Venom Peptide Derivative In Vitro and In Vivo” (PLoS ONE, 2012).

For one assay, the system named is E. coli AB94012. Type of assay: cell-based. To be noted: E. coli AB94012, Gram-negative; broth microdilution, 96-well. Here is the method: These peptides were used to determine the inhibitory activities against the representative Gram-positive bacteria S. aureus AB94004 and the representative Gram-negative bacteria E. coli AB94012.
(§1) S. aureus AB94004, S. aureus ATCC 25923, E. coli AB94012, E. coli ATCC 25922, Pseudomonas aeruginosa AB93066, Bacillus thuringiensis AB92037, Bacillus subtilis AB91021, and Micrococcus luteus AB93113 were purchased from the China Center of Type Culture Collection (CCTCC).
(§2) The MIC was determined via a microdilution assay in 96-well microtiter plates according to the broth microdilution guideline of Clinical and Laboratory Standards Institute (CLSI).
(In general: Dilution methods test growth across graded concentrations, often in twofold steps.)

The next assay concerns P. aeruginosa AB93066. As to the kind of experiment: MIC, broth microdilution (CLSI). Type of assay: cell-based, Pseudomonas aeruginosa. To be noted: P. aeruginosa AB93066, Gram-negative, 96-well. Here is the method: as §1, §2
The next assay relates to S. aureus. As to the kind of experiment: S. aureus mouse skin abrasion and infection model. Type of assay: in vivo, mouse (BALB/c). Here is the method:
Female BALB/c mice weighing 18–20 g were purchased from the Hubei Research Center of Laboratory Animals. All animal studies were approved by the Institutional Animal Care and Use Committee of Wuhan University.
Kn2-7 or BmKn2 was prepared in gel form in 0.5% hydroxypropylcellulose to a final concentration of 5 mg/mL.
Mice were injected with 150 mg/kg of cyclophosphamide 4 days prior to infection. Subsequently, the mice were injected with 100 mg/kg of cyclophosphamide 1 day prior to infection. After being anesthetized, the dorsal skin of the mice was shaved, and abrasions were produced in a 1×1 cm^2 area using a blade. These abrasion wounds damaged only the stratum corneum and upper layer of the epidermis, but not the dermis. Five minutes later, the wounds were inoculated with 20 µl of S. aureus (10^7–10^8 CFUs) using a micropipettor. A group of mice was killed 4 h after infection to control for the infectious dose. Four hours after infection, the wounds of the other mice were smeared with 20 µl of 5 mg/mL gel or a placebo gel, which was used as a negative control. The treatment lasted for 4 days, with two peptide gel applications being performed daily (morning and evening at 8 h intervals). After 4 days of treatment, the mice were killed, and the wound area of the skin was immediately excised and homogenized. Suitable dilutions of the homogenates were plated on LB plates to determine the number of living bacteria (CFUs).
After the animals were euthanized, biopsy specimens of the excised wound area of the skin were collected and immediately fixed in phosphate-buffered formalin (10%, pH = 7.4). Then, the biopsy specimens were embedded in paraffin and stained with hematoxylin and eosin.
In each experiment, the mean CFU was calculated using log10-transformed data. Based on the averages of three experiments, the mean, range, and coefficient of variation were calculated.

Ends that are not written are not given here.

By MIC is commonly meant the smallest concentration in the dilution series that meets the test's criterion for growth inhibition. Higher therefore signals a less susceptible organism. FIGAIARLLSKIF-NH2 [BmKn2]: the MIC against E. coli AB94012 was above 100 µg/mL; in the assay with P. aeruginosa AB93066, 50 µg/mL.

Turning to FIKRIARLLRKIF [Kn2-7], the “Cutaneous viable counts (colony counts) of S. aureus” value in the assay on S. aureus (female BALB/c mice, cyclophosphamide-pretreated, skin abrasion, 10^7–10^8 CFUs, topical 20 µl of 5 mg/mL gel (0.5% hydroxypropylcellulose) twice daily for 4 days, eight mice per group, versus placebo-treated and untreated mice) was “clearly lower”. In the assay on S. aureus (hematoxylin and eosin, topical 5 mg/mL gel twice daily for 4 days, untreated and placebo groups lost nearly all epidermis), the “Histological morphology of the skin sections, four days after infection” value was “recovered almost fully”. Also, the “Appearance of the infected skin, four days after infection” value in the assay on S. aureus (topical 5 mg/mL gel twice daily for 4 days, placebo blisters became larger) is listed as “healed”. Moreover, the “Appearance of the infected skin, one day after infection” value in the assay with S. aureus (topical 5 mg/mL gel twice daily, placebo skin wet with blistering) was “scabbed over”.
